≈ marks a conversion by molar mass, not a printed value.
How the values were obtained:
Assay in all cases: in vitro antibacterial activity (MIC), agar dilution
Type in all cases: cell-based
[1] = system: Staphylococcus aureus A-5278; details: organism code CC; BHI agar, 35-37° C., 20 to 24 hours; unit assumed
In short: (§1)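 BHI agar incorporation method; twelve compound concentrations. Streptococcus and other slow growers inoculated at 1:10, other strains at 1:100. Visual MIC read-out versus growth control.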

[2] = system: Mycobacterium smegmatis ATCC 114; details: organism code UU; BHI agar, 35-37° C., 20 to 24 hours; unit assumed
In short: as §1

[3] = system: Streptococcus Pneumonia ATCC6303; details: organism code XX; BHI agar, 35-37° C., 20 to 24 hours; unit assumed
In short: as §1

[4] = system: Staphylococcus aureus CMX 642A; details: organism code DD; BHI agar, 35-37° C., 20 to 24 hours; unit assumed
In short: as §1

[5] = system: Streptococcus pyogenes 930; details: organism code MM; BHI agar, 35-37° C., 20 to 24 hours; unit assumed
In short: as §1

[6] = system: Streptococcus pyogenes EES61; details: organism code LL; BHI agar, 35-37° C., 20 to 24 hours; unit assumed
In short: as §1

[7] = system: Streptococcus Pneumonia 5979; details: organism code ZZ; BHI agar, 35-37° C., 20 to 24 hours; unit assumed
In short: as §1

[8] = system: Streptococcus agalactiae CMX 508; details: organism code KK; BHI agar, 35-37° C., 20 to 24 hours; unit assumed
In short: as §1

[9] = system: Haemophilis Influenzae DILL AMP R; details: organism code WW; BHI agar, 35-37° C., 20 to 24 hours; unit assumed
In short: as §1

[10] = system: Streptococcus Pneumonia GYR 1171; details: organism code YY; BHI agar, 35-37° C., 20 to 24 hours; unit assumed
In short: as §1

[11] = system: Nocardia Asteroides ATCC9970; details: organism code VV; BHI agar, 35-37° C., 20 to 24 hours; unit assumed
In short: as §1

[12] = system: Streptococcus bovis A-5169; details: organism code JJ; BHI agar, 35-37° C., 20 to 24 hours; unit assumed
In short: as §1

Escherichia coli DC-2 = details: organism code SS; BHI agar, 35-37° C., 20 to 24 hours; unit assumed
In short: as §1

[13] = system: Enterococcus faecium ATCC 8043; details: organism code II; BHI agar, 35-37° C., 20 to 24 hours; unit assumed
In short: as §1

Escherichia coli SS = details: organism code RR; BHI agar, 35-37° C., 20 to 24 hours; unit assumed
In short: as §1

Candida albicans CCH 442 = details: organism code TT; BHI agar, 35-37° C., 20 to 24 hours; unit assumed
In short: as §1

[14] = system: Staphylococcus aureus A5177; details: organism code BB; BHI agar, 35-37° C., 20 to 24 hours; unit assumed
In short: as §1

[15] = system: Streptococcus pyogenes PIU 2548; details: organism code NN; BHI agar, 35-37° C., 20 to 24 hours; unit assumed
In short: as §1

[16] = system: Streptococcus Pneumonia 5649; details: organism code ZZA; BHI agar, 35-37° C., 20 to 24 hours; unit assumed
In short: as §1

[17] = system: Staphylococcus aureus 1775; details: organism code GG; BHI agar, 35-37° C., 20 to 24 hours; unit assumed
In short: as §1

[18] = system: Micrococcus luteus ATCC 9341; details: organism code OO; BHI agar, 35-37° C., 20 to 24 hours; unit assumed
In short: (§2)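 Test compound serially diluted in Brain Heart Infusion agar across twelve plates; inocula of 1:100 dilution (1:10 for slow growers such as Streptococcus) applied by Steers replicator. MIC taken visually as lowest concentration giving no growth, slight haze or sparse isolated colonies versus drug-free growth control.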

[19] = system: Staphylococcus aureus ATCC 6538P; details: organism code AA; BHI agar, 35-37° C., 20 to 24 hours; unit assumed
In short: as §1

[20] = system: Staphylococcus aureus CMX 553; details: organism code FF; BHI agar, 35-37° C., 20 to 24 hours; unit assumed
In short: as §1

[21] = system: Staphylococcus aureus NCTC10649M; details: organism code EE; BHI agar, 35-37° C., 20 to 24 hours; unit assumed
In short: as §1

[22] = system: Staphylococcus epidermidis 3519; details: organism code HH; BHI agar, 35-37° C., 20 to 24 hours; unit assumed
In short: as §1

Escherichia coli JUHL = details: organism code QQ; BHI agar, 35-37° C., 20 to 24 hours; unit assumed
In short: as §1

[23] = system: Micrococcus luteus ATCC 4698; details: organism code PP; BHI agar, 35-37° C., 20 to 24 hours; unit assumed
In short: as §2

| SMILES | MIC [1] [µg/mL] | MIC [2] [µg/mL] | MIC [3] [µg/mL] | MIC [4] [µg/mL] | MIC [5] [µg/mL] | MIC [6] [µg/mL] | MIC [7] [µg/mL] | MIC [8] [µg/mL] | MIC [9] [µg/mL] | MIC [10] [µg/mL] | MIC [11] [µg/mL] | MIC [12] [µg/mL] | MIC (Escherichia coli DC-2) [µg/mL] | MIC [13] [µg/mL] | MIC (Escherichia coli SS) [µg/mL] | MIC (Candida albicans CCH 442) [µg/mL] | MIC [14] [µg/mL] | MIC [15] [µg/mL] | MIC [16] [µg/mL] | MIC [17] [µg/mL] | other results |
| --- | --- | --- | --- | --- | --- | --- | --- | --- | --- | --- | --- | --- | --- | --- | --- | --- | --- | --- | --- | --- | --- |
| CC[C@H]1OC(=O)[C@H](C)C(=O)[C@H](C)[C@@H](O[C@@H]2O[C@H](C)C[C@H](N(C)C)[C@H]2O)[C@](C)(OC/C=C/c2cnc(-c3cncs3)s2)C[C@@H](C)C(=O)[C@H](C)[C@H]2NC(=O)O[C@@]21C [Example 60] | > 100 | 1.56 (≈ 1.94 µM) | ≤ 0.004 | 0.05 (≈ 0.0621 µM) | 3.1 (≈ 3.85 µM) | 0.01 (≈ 0.0124 µM) | 1 (≈ 1.24 µM) | 0.01 (≈ 0.0124 µM) | 4 (≈ 4.97 µM) | ≤ 0.004 | 0.01 (≈ 0.0124 µM) | ≤ 0.005 | 100 (≈ 124 µM) | 0.02 (≈ 0.0248 µM) | 0.2 (≈ 0.248 µM) | > 100 | 0.05 (≈ 0.0621 µM) | 0.2 (≈ 0.248 µM) | 0.25 (≈ 0.311 µM) | > 100 | MIC [18]: ≤ 0.005 µg/mL; MIC [19]: 0.1 µg/mL (≈ 0.124 µM); MIC [20]: 0.05 µg/mL (≈ 0.0621 µM); MIC [21]: 0.1 µg/mL (≈ 0.124 µM); MIC [22]: 0.1 µg/mL (≈ 0.124 µM); MIC (Escherichia coli JUHL): 50 µg/mL (≈ 62.1 µM); MIC [23]: 0.02 µg/mL (≈ 0.0248 µM) |
| CC[C@H]1OC(=O)[C@H](C)C(=O)[C@H](C)[C@@H](O[C@@H]2O[C@H](C)C[C@H](N(C)C)[C@H]2O)[C@](C)(OC/C=C/c2ccc(-c3nccs3)s2)C[C@@H](C)C(=O)[C@H](C)[C@H]2NC(=O)O[C@@]21C [Example 63] | > 100 | 0.39 (≈ 0.485 µM) | 0.008 (≈ 0.00995 µM) | 0.1 (≈ 0.124 µM) | 6.2 (≈ 7.71 µM) | 0.05 (≈ 0.0622 µM) | 8 (≈ 9.95 µM) | 0.05 (≈ 0.0622 µM) | 4 (≈ 4.97 µM) | 0.008 (≈ 0.00995 µM) | 0.05 (≈ 0.0622 µM) | 0.05 (≈ 0.0622 µM) | 100 (≈ 124 µM) | 0.05 (≈ 0.0622 µM) | 0.1 (≈ 0.124 µM) | > 100 | 0.1 (≈ 0.124 µM) | 0.2 (≈ 0.249 µM) | 0.25 (≈ 0.311 µM) | > 100 | MIC [18]: 0.05 µg/mL (≈ 0.0622 µM); MIC [19]: 0.1 µg/mL (≈ 0.124 µM); MIC [20]: 0.1 µg/mL (≈ 0.124 µM); MIC [21]: 0.1 µg/mL (≈ 0.124 µM); MIC [22]: 0.2 µg/mL (≈ 0.249 µM); MIC (Escherichia coli JUHL): 100 µg/mL (≈ 124 µM); MIC [23]: 0.1 µg/mL (≈ 0.124 µM) |
| CC[C@H]1OC(=O)[C@H](C)C(=O)[C@H](C)[C@@H](O[C@@H]2O[C@H](C)C[C@H](N(C)C)[C@H]2O)[C@](C)(OC/C=C/c2cncc(-c3nccs3)c2)C[C@@H](C)C(=O)[C@H](C)[C@H]2NC(=O)O[C@@]21C [Example 51] | > 100 | 0.39 (≈ 0.488 µM) | ≤ 0.004 | 0.1 (≈ 0.125 µM) | 6.2 (≈ 7.76 µM) | 0.02 (≈ 0.025 µM) | > 128 | 0.01 (≈ 0.0125 µM) | 2 (≈ 2.5 µM) | ≤ 0.004 | 0.05 (≈ 0.0626 µM) | 0.01 (≈ 0.0125 µM) | 25 (≈ 31.3 µM) | 0.05 (≈ 0.0626 µM) | 0.2 (≈ 0.25 µM) | > 100 | 0.05 (≈ 0.0626 µM) | 0.2 (≈ 0.25 µM) | 0.25 (≈ 0.313 µM) | > 100 | MIC [18]: 0.01 µg/mL (≈ 0.0125 µM); MIC [19]: 0.1 µg/mL (≈ 0.125 µM); MIC [20]: 0.1 µg/mL (≈ 0.125 µM); MIC [21]: 0.1 µg/mL (≈ 0.125 µM); MIC [22]: 0.1 µg/mL (≈ 0.125 µM); MIC (Escherichia coli JUHL): 100 µg/mL (≈ 125 µM); MIC [23]: 0.2 µg/mL (≈ 0.25 µM) |

— patent US6054435A, “6-O-substituted macrolides having antibacterial activity” (priority 1999, dated 2000)
